Source: patent US7253295B2, “Chloride channel opener” (Sucampo AG, priority 2001, dated 2007)

Experiments:
[1] = target: T1, recombinant human ClC-2 Chloride Channels (Homo sapiens, UniProt P51788); assay: Whole cell patch clamp, ClC-2 transfected HEK cells, current increase (Test Example 4); assay type: cell-based; details: 100 nM, change from control
T1 construct: His; T7; expressed in transfected cells; host or cells: HEK-293 (ATCC), pcDNA3.1, G-418 selected
T1 sequence (P51788 1-898): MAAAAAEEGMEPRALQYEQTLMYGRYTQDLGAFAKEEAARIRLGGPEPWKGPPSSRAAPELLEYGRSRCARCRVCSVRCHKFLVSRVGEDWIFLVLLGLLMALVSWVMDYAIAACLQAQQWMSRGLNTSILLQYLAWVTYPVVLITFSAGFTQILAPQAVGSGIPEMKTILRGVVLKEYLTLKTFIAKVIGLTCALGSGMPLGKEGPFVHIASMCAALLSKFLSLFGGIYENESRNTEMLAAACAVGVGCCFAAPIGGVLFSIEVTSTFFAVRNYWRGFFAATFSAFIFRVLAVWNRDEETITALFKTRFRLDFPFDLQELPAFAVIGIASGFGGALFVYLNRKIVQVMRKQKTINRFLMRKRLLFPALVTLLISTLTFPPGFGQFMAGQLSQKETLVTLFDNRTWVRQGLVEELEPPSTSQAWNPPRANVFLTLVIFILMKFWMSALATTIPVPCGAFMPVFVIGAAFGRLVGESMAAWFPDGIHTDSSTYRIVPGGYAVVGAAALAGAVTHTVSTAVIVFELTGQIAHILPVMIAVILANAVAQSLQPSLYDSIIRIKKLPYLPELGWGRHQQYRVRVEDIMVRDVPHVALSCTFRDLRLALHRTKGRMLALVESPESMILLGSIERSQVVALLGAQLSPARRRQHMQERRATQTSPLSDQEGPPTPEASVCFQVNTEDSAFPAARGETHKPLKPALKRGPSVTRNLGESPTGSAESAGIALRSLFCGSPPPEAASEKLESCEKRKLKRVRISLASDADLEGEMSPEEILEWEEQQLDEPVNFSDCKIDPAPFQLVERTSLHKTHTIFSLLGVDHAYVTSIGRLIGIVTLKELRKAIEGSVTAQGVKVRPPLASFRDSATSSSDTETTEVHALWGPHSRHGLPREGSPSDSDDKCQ
Procedure: According to the same manner as described in Example 1, whole cell patch clamp measurements were carried out.
Test compounds were used at a final concentration of 100 nM.

AS-HBE cells = assay: Short-circuit current in AS-HBE cells (Test Example 3); assay type: cell-based, human; details: 250 nM
Procedure: AS-HBE is a human bronchial epithelial (HBE) cell line expressing the first 131 nucleotides of CFTR in the antisense direction (antisense CFTR 16HBE14o- cells, HBE-AS; also called AS-HBE). As a result, AS-HBE cells lack CFTR transcripts and lack functional CFTR. However, AS-HBE cells do express functional ClC-2 in a manner identical to the parental cell line, 16HBE14o- cells, from which they were derived. AS-HBE cells were maintained at 37° C. in 5%/95% CO2/O2 in Minimal Essential Medium (MEM; GIBCO/Invitrogen, Carlsbad, Calif.) supplemented with Earl's salt, L-glutamine (GIBCO/Invitrogen), 10% heat-inactivated fetal bovine serum, 100 units/ml penicillin, 100 μg/ml streptomycin sulfate and 400 μg/ml G-418 (GIBCO/Invitrogen). The cells were grown in air-liquid interface on Biocoat inserts (Fisher Scientific, Chicago, Ill.), coated with human plasma fibronectine (GIBCO/Invitrogen) and vitrogen (Cohesion Technologies, Palo Alto, Calif.).
According to the same manner as described in Example 2, Short-circuit current measurements in the AS-HBE cells were carried out. Changes in short-circuit current (ΔIsc) were normalized to the filter area (0.3 cm^2) and reported as ΔIsc/cm^2.
Test compounds were used at a final concentration of 250 nM.

Activation of ClC-2 channels ΔpA/pF [1] | SMILES | Changes in short-circuit currents (Δlsc) (AS-HBE cells)
38.2 pA/pF | CCCCC(F)(F)C1(O)CC[C@@H]2[C@@H](CCCCCCC(=O)NCC)[C@@H](O)C[C@H]2O1 (stereo partly drawn) [Compound 9, N1-ethyl-7-[(2,4aR,5R,6S,7aR)-2-(1,1-difluoropentyl)-2,6-dihydroxyperhydrocyclopenta[b]pyran-5-yl]heptanamide] | –
24.6 pA/pF | CCCCC(F)(F)C(O)CC[C@H]1[C@H](O)CC(=O)[C@@H]1CCCCCCC(=O)O (stereo partly shown) [Compound 8, 13,14-dihydro-16,16-difluoro-PGE1] | –
– | CCCCC[C@H](O)/C=C/[C@@H]1[C@H]2C/C(=C/CCCC(=O)[O-])O[C@H]2C[C@H]1O.[Na+] [Compound 7, PGI2-Na, reference compound] | 1.0 μA/cm^2
– | CCCCC(F)(F)C1(O)CC[C@H]2[C@@H](CC(=O)[C@@H]2CCCCCCC(=O)NCC)O1 (stereo partly drawn) [Compound 3, N1-ethyl-7-[(2,4aR,5R,7aR)-2-(1,1-difluoropentyl)-2-hydroxy-6-oxoperhydrocyclopenta[b]pyran-5-yl]heptanamide] | 2.7 μA/cm^2
– | CCCCCCC(F)(F)C1(O)CC[C@H]2[C@@H](CC(=O)[C@@H]2CCCCCCCCC(=O)OC(C)C)O1 (stereo partly drawn) [Compound 5, Isopropyl (−)-9-[(4aR,5R,7aR)-2-(1,1-difluoroheptyl)-2-hydroxy-6-oxoperhydrocyclopenta[b]pyran-5-yl]nonanoate] | 0.3 μA/cm^2
– | CCCCC(F)(F)C(=O)/C=C/[C@H]1[C@H](O)CC(=O)[C@@H]1CCCCCCC(=O)O [Compound 4, 15-keto-16,16-difluoro-PGE1] | 1.0 μA/cm^2
– | CCCCC[C@H](O)/C=C/[C@@H]1[C@@H](C/C=C\CCCC(=O)O)[C@@H](O)C[C@H]1O [Compound 6, PGF2α, reference compound] | 0.7 μA/cm^2
